{
  "source": "patent US20130149346A1",
  "about": "“DABIGATRAN ETEXILATE-CONTAINING PHARMACEUTICAL COMPOSITION” (ratiopharm GmbH Graf-Arco-Strasse 3, priority 2010, published 2013)",
  "origin": "cited, not measured here",
  "details": "in the acidic environment",
  "data": [
    {"smiles": "CCCCCCOC(=O)NC(=N)c1ccc(NCc2nc3cc(C(=O)N(CCC(=O)OCC)c4ccccn4)ccc3n2C)cc1", "note": "[dabigatran etexilate, 3-[(2-{[4-(hexyloxycarbonylamino-imino-methyl)-phenylamino]-methyl}-1-methyl-1H-benzimidazole-5-carbonyl)-pyridine-2-yl-amino]-propionic acid ethyl ester]", "values": [
      {"measurement": "pH-dependent solubility", "result": "greatly increased"}
    ]}
  ]
}
